The values below come from patent US20100130737A1, “Regulating Agent of GPR34 Receptor Function” (TAKEDA PHARMACEUTICAL COMPANY LIMITED, priority 2005, published 2010).

The target of data set [1] is T1, human GPR34 (Homo sapiens, UniProt Q9UPC5). Briefly: Human GPR34 antagonist activity as indicated by cAMP in human GPR34-expressing CHO cells. The data set is classed as cell-based. The settings on record: for cAMP (%): buffer only = 0%, 2.5 μM Forskolin = 100%. Further details: expressed in transfected cells. On the procedure:
Human GPR34-expressing CHO cells were maintained in nucleic acid-free MEM-a (Invitrogen) containing 10% dialyzed FBS (Invitrogen) and penicillin and streptomycin (BioWhittaker) (hereunder described as culture medium), and on the day before assay the cells were stripped with trypsin/EDTA (Invitrogen), centrifuged, re-suspended in culture medium and seeded 2×10^5 per well, 1 ml/well on a 24-well plate (Nunc). The seeded cells were cultured overnight at 37° C. in a CO2 incubator, and subjected to cAMP assay the next day.
The plate was washed twice, 500 μL/well with Hank's balanced salt solution (HBSS, Invitrogen) containing 20 mM HEPES (1 M HEPES solution, Dojindo) with 0.2 mM 3-isobutyl-1-methylxanthine (IBMX, Wako Pure Chemical) added thereto (hereunder described as assay buffer (HBSS+HEPES-FIBMX)), and kept warm for 30 minutes in a water bath at 37° C. Next, 250 μL of assay buffer (HBSS+HEPES+IBMX) was substituted, and the plate was kept for a further 15 minutes in a water bath at 37° C. 2 μl of GPR34 antagonist compound solution at 250× the final concentration was added and gently stirred with a plate mixer, 2 μL, of lysoPS (Sigma or Alexis) at 250× the final concentration and 5 μM (2× the final concentration) of Forskolin (Wako Pure Chemical) were added, and 250 μL, of assay buffer (HBSS+HEPES+IBMX) was added and reacted for 30 minutes in a water bath at 37° C. In the case of the human GPR34-expressing CHO cells, 2 μL of 50 μM lysoPS was added so that the final concentration would be roughly the EC50 value of 0.2 μM. After completion of the reaction, intracellular cAMP was detected by competitive EIA using a cAMP Screen System (Applied Biosystems). After completion of the assay, 200 μL, of the Assay/lysis buffer for the cAMP Screen System was substituted, and intracellular cAMP was extracted by maintaining the cells for about 40 minutes at 37° C. EIA was then performed in accordance with the cAMP Screen Systems protocols to assay intracellular cAMP.
Relative percentage values were calculated by Microsoft Excel with the cAMP level with only assay buffer (HBSS+HEPES+IBMX) added (“None” in the table) given as 0%, and the cAMP level with the final concentration 2.5 μM Forskolin added given as 100%.

For data set [2], the target named is T1, human GPR34. Briefly: Human GPR34 antagonist activity indicated by changes in intracellular calcium concentration (FLIPR). The data set is classed as cell-based. Further details: expressed in transfected cells; host or cells: CHO cells (human GPR34CHO line) stably transfected with pCR3.1 human lung Gα16. The settings on record: CHO cells expressing human GPR34/Gα16, against 2 μM lysoPS final concentration, Fluo-3AM. The procedure, abridged: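 CHO cells expressing human GPR34/Gα, loaded with Fluo-3AM for 1 h; compound added, then lysoPS at 2 μM final after 200 s. Calcium change read by FLIPR; IC50 from dose-response of maximum fluorescence over 200–380 s.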

The test system of data set [3] is rat peritoneal mast cells. As to the kind of experiment: Degranulation inhibiting activity in rat peritoneal mast cells (β-hexosaminidase release). The data set is classed as cell-based. As to conditions: for degranulation of rat peritoneal mast cells due to LysoPS and DNP-BSA stimulation: 10 μM compound, co-stimulation with 3 μM LysoPS and 100 ng/ml DNP-BSA = 100%, spontaneous degranulation = 0%. On the procedure:
Ice-cooled mast cell medium (hereunder called MCM: 150 mM NaCl, 3.7 mM KCl, 3.0 mM NaH2PO4, 3.5 mM KH2PO4, 5.6 mM (D)-Glucose, 0.1% bovine serum albumin (BSA), 0.1% gelatin, 10 U/ml heparin, pH 6.8) was injected intraperitoneally into rats, about 40 ml per rat, the abdomens were massaged for about 2 minutes and then opened along the median line, and ascites was collected. The collected ascites were filtered with a cell strainer (Becton Dickinson) and centrifuged for 7 minutes at 50×g, and the precipitated cells were suspended in MCM and then centrifuged again for 7 minutes at 50×g. The precipitated cells were suspended in 5 ml of MCM, layered over 2 ml of 32% (w/v) BSA solution (dissolved in 0.9% NaCL), and left for 20 minutes at room temperature. This was centrifuged for 15 minutes at room temperature at 300×g, the cells between the MCM and BSA solution were discarded, and the precipitated cells were suspended in MCM and washed twice by being centrifuged for 5 minutes at 300×g. The precipitated cells were suspended in assay buffer (150 mM NaCl, 3.7 mM KCl, 3.0 mM NaH2PO4, 3.5 mM KH2PO4, 0.9 mM CaCl2, 5.6 mM (D)-Glucose, 0.01% BSA, pH 6.8), and these cells were used in the following test.
RPMC cells suspended in assay buffer were passively sensitized by adding 10 μg/ml of monoclonal mouse anti-DNP-IgE (Seikagaku) and leaving them for 30 minutes on ice. After 5 minutes of centrifugation at 300×g, the precipitated cells were washed 3 times with assay buffer. The RPMC cells suspended in assay buffer were dispensed on 96-well V-bottom plates, 2×10^4 cells per well. The assay was performed with n=3 under each set of reaction conditions. The plates were maintained for 5 minutes at 37° C., the test compound was added, and after 15 minutes lysoPS (Sigma) was added to a final concentration of 3 μM and DNP-BSA (Calbiochem) to a final concentration of 100 ng/ml for a final capacity of 200 and left on a water bath at 37° C. After 20 minutes, the plate was ice cooled to stop RPMC activation, followed by 5 minutes of centrifugation at 300×g, and β-hexosaminidase activity in the supernatant was measured using 4-methylumbelliferyl-2-acetamido-2-deoxy-β-D-glucopyranoside (Wako Pure Chemical) degradation as the indicator.

Data set [4] deals with rat peritoneal mast cells. Described as above. The data set is classed as cell-based.
The target of data set [5] is T1, human GPR34. Briefly: Reactivity of human GPR34CHO cell strain stably expressing Gα16 to lysophosphatidyl serine (FLIPR). The settings on record: Fluo 3-AM, 3 minutes after addition; concentration-dependent. Further details: expressed in transfected cells; host or cells: CHO cells (human GPR34CHO line) stably transfected with pCR3.1 human lung Gα16. The data set is classed as cell-based. On the procedure: The reactivity of the human GPR34CHO cell strain stably expressing Gα16 to lysophosphatidyl serine (lysoPS) was investigated by the FLIPR (Molecular Devices) assay method. The fluorescent calcium indicator Fluo 3-AM (Wako Pure Chemical) was incorporated into the human GPR34CHO cell strain stably expressing Gα16, and the cells were washed with assay buffer. Various concentrations of 50 μl lysophosphatidyl serine solution were added to cells immersed in 100 μl of assay buffer, and the intracellular fluorescent strength 3 minutes after addition was measured by FLIPR.

One may read the melting point as the temperature of the solid-liquid transition. What is called IC50 is the concentration at which inhibition is half-maximal. The term EC50 denotes the concentration giving half of the maximal effect.

Where only a bound is given, the exact number is not on record here.

T1 sequence (Q9UPC5 whole entry): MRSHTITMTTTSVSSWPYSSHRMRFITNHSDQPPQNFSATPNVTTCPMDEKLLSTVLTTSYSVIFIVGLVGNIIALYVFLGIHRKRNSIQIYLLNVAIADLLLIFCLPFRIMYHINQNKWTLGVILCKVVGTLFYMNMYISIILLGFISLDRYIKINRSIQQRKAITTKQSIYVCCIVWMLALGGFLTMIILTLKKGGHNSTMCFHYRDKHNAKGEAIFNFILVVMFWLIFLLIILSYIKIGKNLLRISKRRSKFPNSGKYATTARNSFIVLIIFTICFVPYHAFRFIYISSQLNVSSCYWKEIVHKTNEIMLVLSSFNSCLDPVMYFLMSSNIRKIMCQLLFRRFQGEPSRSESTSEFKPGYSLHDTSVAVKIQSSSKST

The molecule `O=C(Cc1ccc(OCc2ccc(F)cc2)cc1)NC1(C(=O)O)Cc2ccc(-c3ccc(Cl)cc3)cc2C1` (centres unmarked) [Example B134] had a melting point of 208 to 209 °C. Further, on human GPR34 [1] (10 μM compound + 2.5 μM Forskolin + 0.2 μM LysoPS), the “cAMP (%)” value is 299%. In addition, the “restoration of cAMP levels (in words)” value at human GPR34 [1] (at 10 μM) is given as “restored cAMP levels to at or above the level before Forskolin stimulus”.

Take `Cc1ccc(COc2ccc(C[C@H](NC(=O)c3cn4ccc(-c5ccc(Cl)cc5)cc4n3)C(=O)O)cc2)cc1` [Example E59, N-{[7-(4-Chlorophenyl)imidazo[1,2-a]pyridin-2-yl]carbonyl}-O-(4-methylbenzyl)tyrosine]: the melting point came out at 262 °C. For the same molecule, on human GPR34 [2], the half-inhibitory concentration (IC50) is at most 1 µM. The “degranulation of rat peritoneal mast cells due to LysoPS and DNP-BSA stimulation” value in data set [3] was 5.1%.

`O=C(N[C@@H](Cc1ccc(OCc2ccc(Cl)cc2)cc1)C(=O)O)c1cn2ccc(-c3ccc(Cl)cc3)cc2n1` [Example E63, O-(4-Chlorobenzyl)-N-{[7-(4-chlorophenyl)imidazo[1,2-a]pyridin-2-yl]carbonyl}tyrosine] displayed a melting point of 261 °C. Besides, the IC50 at human GPR34 [2] was at most 1 µM. Also, the “degranulation of rat peritoneal mast cells due to LysoPS and DNP-BSA stimulation” value in data set [3] is recorded as 5.7%.

In turn, `CCc1ccc(COc2ccc(C[C@H](NC(=O)c3cn4ccc(-c5ccc(Cl)cc5)cc4n3)C(=O)O)cc2)cc1` [Example E65, N-{[7-(4-Chlorophenyl)imidazo[1,2-a]pyridin-2-yl]carbonyl}-O-(4-ethylbenzyl) tyrosine] registered a melting point of 245 °C. Also, the IC50 at human GPR34 [2] was at most 1 µM. Moreover, the “degranulation of rat peritoneal mast cells due to LysoPS and DNP-BSA stimulation” value in data set [3] is listed as 8.8%.

lisophosphatidylserine [lysoPS]: the RPMC degranulation worked out at 8.4% in data set [4] (100 ng/ml DNP-BSA stimulus + 0.1 μM lysoPS added simultaneously); 14.7% in data set [4] (100 ng/ml DNP-BSA stimulus + 0.3 μM lysoPS added simultaneously); 26.0% in data set [4] (100 ng/ml DNP-BSA stimulus + 1 μM lysoPS added simultaneously); 45.2% in data set [4] (100 ng/ml DNP-BSA stimulus + 10 μM lysoPS added simultaneously); 36.7% in data set [3] (100 ng/ml DNP-BSA stimulus + 3 μM lysoPS added simultaneously). In addition, the “cAMP (%)” value on human GPR34 [1] (0.2 μM LysoPS + 2.5 μM Forskolin) is given as 43%. Further, the EC50 at human GPR34 [1] (human GPR34-expressing CHO cells, cAMP assay, read-out: EC50 value of lysoPS) is about 0.2 µM.

For lysophosphatidyl serine, the “intracellular fluorescent strength (intracellular calcium), in words” value at human GPR34 [5] was “caused a rise in intracellular fluorescent strength”.
